Data as given in article PMC4894409 (Scientific Reports, 2015).
Structures can show the parent of a compound that is named as a salt. Where two headings read alike, the source gives them in different places.

What was measured:
[1] = test system: mice; assay: FS test after AMPT, PCPA, PRAZ or WAY pretreatment (mechanism of antidepressant-like effect of D1); format: in vivo, Male Swiss mice; details: AMPT 100, PCPA 100, PRAZ 1 or WAY 0.3 mg/kg i.p. + Vehicle versus SAL + Vehicle, p > 0.05
Description: Mice were pretreated (i.p) with saline solution or AMPT 100 mg/kg (catecholamine depletor) 4 h prior to the oral administration of vehicle 10 mL/kg or D1 5 mg/kg. […] In a separate experiment, pretreatment (i.p) of mice with saline solution or PCPA 100 mg/kg (serotonin depletor) for four consecutive days prior to oral administration of vehicle or D1 5 mg/kg was used to investigate effect of serotonin depletion on antidepressant-like activity of this OAD. […] In all the four experiments, oral administration of vehicle or D1 5 mg/kg was followed by FS test (60 min interval between p.o. treatment and behavioural testing).

[2] = test system: mice; assay: Open field (OF) test; format: in vivo, Male Swiss mice; details: for other parameters of the OF test: 5, 10, 20 mg/kg p.o., parameters not named as changed, p > 0.05
Description: (§1) Male Swiss mice (weighing between 25–30 g; 6–8 weeks old), provided by Central Animal House of the Federal University of Goiás, were used in all behavioural models. The experimental animals were kept in an intra-laboratory facility cage (32 × 18 × 16 cm) under controlled environmental conditions (23 ± 1 °C, 12 hr light-dark cycle) with access to food and water ad libitum. The experimental protocols (number 104/08) were approved by Ethical Committee of Federal University of Goiás in accordance to the international laws on the care and use of laboratory animals.
In the OF, animals were randomly divided into six groups [control (vehicle), 3 different doses of OAD, DZP 1 or 5 mg/kg]. Animals were treated with vehicle, OAD (5, 10 or 20 mg/kg, p.o), DZP (1 or 5 mg/kg, p.o) as described in our previous work[7][49], and placed in a circular open field [base area ( [drawing 2] ) = 62.80 cm^2 which is divided into 8 equal sectors enclosed in a 50 cm high wooden wall]. The test session (5-min duration) was videotaped in a sound-proof experimental room. Parameters like total crossing, freezing time, number of grooming and rearing activity, crossing at the centre and time spent at the centre of the open field were observed and scored.

[3] = test system: dopamine, noradrenaline and serotonin levels; details: cited from earlier work
[4] = test system: mice; assay: Forced swimming (FS) test; format: in vivo, Male Swiss mice
Description: as §1
In the FS model, mice were randomly divided into 5 groups [control (vehicle), 3 different doses of OAD and IMI]. Mice were exposed to a modified version of FS test[48] after oral administration of vehicle, OAD (5, 10 or 20 mg/kg) or IMI 15 mg/kg. FS apparatus is a cylindrical water container (42 cm in height, 18 cm in diameter) filled with water up to 30 cm (total volume ( [drawing 1] of 7635.06 cm^3 at 24 ± 2 °C). In this model, the initial escape-directed behaviour like swimming and climbing by mouse are generally followed with a relatively passive and immobile posture. The container was cleaned with 10% ethanol solution prior to the exposure of naïve mouse. This test session (6-min duration) was videotaped and the swimming and immobility time was later scored and analyzed.

[5] = previous study; cited from earlier work
[6] = molecular target: T1, 5-HT1A receptor (Mus musculus, UniProt Q64264); assay: [35S]GTPγS binding to mice hippocampal membranes; format: biochemical; details: for Emax: read-out: Intrinsic activity (Emax ± SEM in %)
T1 construct: The hippocampi of mice were dissected and homogenized in 5 volumes of ice-cold buffer; from tissue; host or cells: mouse hippocampus membranes
T1 sequence (Q64264 1-421): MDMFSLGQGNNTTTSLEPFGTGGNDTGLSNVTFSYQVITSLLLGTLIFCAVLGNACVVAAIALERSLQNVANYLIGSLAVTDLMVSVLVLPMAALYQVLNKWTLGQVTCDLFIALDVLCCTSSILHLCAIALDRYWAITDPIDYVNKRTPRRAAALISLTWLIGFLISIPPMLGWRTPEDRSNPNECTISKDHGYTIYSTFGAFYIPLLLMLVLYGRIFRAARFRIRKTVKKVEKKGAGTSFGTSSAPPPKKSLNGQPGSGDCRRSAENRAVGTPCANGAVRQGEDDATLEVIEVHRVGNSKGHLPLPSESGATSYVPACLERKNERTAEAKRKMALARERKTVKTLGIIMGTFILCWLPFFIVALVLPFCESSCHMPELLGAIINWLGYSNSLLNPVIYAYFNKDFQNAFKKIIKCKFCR
Description: The hippocampi of mice were dissected and homogenized in 5 volumes of ice-cold buffer (25 mM Tris-HCl, 0.5 mM dithiothreitol, and 0.5 mM EGTA, pH 7.4). The homogenate was centrifuged (1,000 × g for 5 min at 4 °C) and the resultant supernatant was removed. The remaining pellet was resuspended in buffer, homogenized, and centrifuged. The two supernatants obtained were combined and centrifuged at […] at 4 °C and the pellets were resuspended in membrane preparation buffer. The volumes were adjusted prior to the determination of protein concentration by Bradford method[56] and stored at −80 °C until required. […] The reactions were initiated by the addition of 25 μl [^35S]-GTPγS, followed by a 20 min incubation at 20 °C. The reactions were terminated by rapid filtration. The filters were placed in liquid scintillation cocktail in counting vials. The liquid scintillation spectroscopy was used to measure the radioactivity bound to the filter paper after 10 hour.

[7] = 100 mg/kg i.p. for four consecutive days
[8] = 20 mg/kg p.o., vs vehicle, p < 0.05

COc1cc2nc(N3CCN(C(=O)c4ccco4)CC3)nc(N)c2cc1OC [PRAZ, prazosin, reference compound]
animal behaviour (swimming time) after pretreatment prior to vehicle [1]: did not alter animal behaviour

CN1C(=O)CN=C(c2ccccc2)c2cc(Cl)ccc21 [DZP, Diazepam, reference compound]
effect in the OF test ([2]; 1 mg/kg p.o.): anxiolytic | effect in the OF test ([2]; 5 mg/kg p.o.): sedative like effect

CC(N)(Cc1ccc(O)cc1)C(=O)O (stereo not drawn) [AMPT, α-methyl-p-tyrosine]
animal behaviour (swimming time) after pretreatment prior to vehicle [1]: did not alter animal behaviour | levels of serotonin ([3]; mice): without affecting | reduction of noradrenaline levels ([3]; mice): 53% | reduction of dopamine levels ([3]; mice, tyrosine hydroxylase inhibitor): 57%

CN(C)CCCN1c2ccccc2CCc2ccccc21 [IMI, imipramine, reference compound]
effect in FS test ([4]; 15 mg/kg p.o.): antidepressant-like effect

COC(=O)/C=C/C(=O)O[C@H]1CC[C@]2(C)[C@H]3CC=C4[C@@H]5CC(C)(C)CC[C@]5(C(=O)O)CC[C@@]4(C)[C@]3(C)CC[C@H]2C1(C)C [D3, Oleanolic acid methyl fumarate]
immobility time in the FS test ([4]; 5, 10, 20 mg/kg p.o., ANOVA): did not elicit significant effect | swimming time in the FS test ([4]; 5, 10, 20 mg/kg p.o., ANOVA): did not elicit significant effect | number of grooming in the OF ([2]; 10 mg/kg p.o., vs vehicle): reduction | freezing time in the OF ([2]; 20 mg/kg p.o., vs vehicle): increase | time spent at the centre of the OF ([2]; 20 mg/kg p.o., vs vehicle): increase | other parameters of the OF test [2]: not altered

N[C@@H](Cc1ccc(Cl)cc1)C(=O)O (racemic) [PCPA, p-chlorophenylalanine]
animal behaviour (swimming time) after pretreatment prior to vehicle [1]: did not alter animal behaviour | depletion of endogenous serotonin content [3, 7]: about 60% | noradrenaline or dopamine levels [3, 7]: without altering

Oleanolic acid ethyl fumarate [D4]
swimming time in the FS test [4, 8]: significant reduction | immobility time in the FS test ([4]; 5, 10, 20 mg/kg p.o., ANOVA): without changes | freezing time in the OF ([2]; 20 mg/kg p.o., vs vehicle): increase | total crossing in the OF ([2]; 20 mg/kg p.o., vs vehicle): reduction

CC1(C)CC[C@]2(C(=O)O)CC[C@]3(C)C(=CC[C@@H]4[C@@]5(C)CC[C@H](O)C(C)(C)[C@@H]5CC[C@]43C)[C@@H]2C1 [OA, Oleanolic acid]
dependence of antidepressant-like effect on MAO activity [5]: independent of MAO activity | effect of PCPA, AMPT, NAN, PRAZ and WAY100635 on antidepressant-like effect [5]: blockade

C=C(C)C(=O)O[C@H]1CC[C@]2(C)[C@H]3CC=C4[C@@H]5CC(C)(C)CC[C@]5(C(=O)O)CC[C@@]4(C)[C@]3(C)CC[C@H]2C1(C)C [D2, Oleanolic acid methacrylate]
immobility time in the FS test [4, 8]: reduction | swimming time in the FS test [4, 8]: significant increase | total crossing in the OF ([2]; 20 mg/kg p.o., vs vehicle): increase | other parameters of the OF test [2]: not altered | time spent at the centre of the OF ([2]; 5, 10 and 20 mg/kg p.o., vs vehicle): increase | crossing at the centre of the OF ([2]; 10 and 20 mg/kg p.o., vs vehicle): increase

COc1ccccc1N1CCN(CCN(C(=O)C2CCCCC2)c2ccccn2)CC1 [WAY, N-{2-[4-(2-methoxyphenyl)-1-piperazinyl]ethyl}-N-2-pyridinylcyclohexane carboxamide, reference compound]
animal behaviour (swimming time) after pretreatment prior to vehicle [1]: did not alter animal behaviour

O=C1CC2(CCCC2)CC(=O)N1CCCCN1CCN(c2ncccn2)CC1 [Buspirone, buspirone]
EC50 ([6]; mice hippocampal membranes, read-out: Agonist potency (pEC50 ± SEM) (converted)): 251 nM | Emax ([6]; percentage of that produced by 10 μM (+)8-OH-DPAT): 33 ± 1%

CCCN(CCC)C1CCc2cccc(O)c2C1 (single isomer, unassigned; (+)) [(+) 8-OH-DPAT, 8-OH-DPAT]
EC50 [6]: 158 nM | Emax [6]: 94 ± 2%
